Measured values: US20230143604A1, “QW DOSING OF GIP RECEPTOR AGONIST PEPTIDE COMPOUNDS AND USES THEREOF” (TAKEDA PHARMACEUTICAL COMPANY LIMITED, priority 2020, published 2023)
Where two headings read alike, the source gives them in different places. Positions of bridges follow the written chain, without caps; N, C: chain ends. Non-standard residues stand in square brackets, D forms with d. Chains are numbered I, II in the order given. *: point of attachment. C18 diacid = O=C(O)CCCCCCCCCCCCCCCCC(=O)*; NMeY = CN[C@@H](Cc1ccc(O)cc1)C(=O)O; Aib = CC(C)(N)C(=O)O

Assays:
[1] = Solubility in phosphate buffer pH 7.4
How it was run: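 3 mg of peptide treated with 100 μL portions of 200 mM phosphate buffer pH 7.4, sonicating/vortexing up to 1 min, with further buffer added until fully dissolved. Solubility then quantified by HPLC.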

C57BL/6J mice = assay: Oral glucose tolerance test (OGTT); assay type: in vivo; conditions: 3 nmol/kg s.c., 24 hours before glucose loading
How it was run: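 Peptide or vehicle given s.c. at 0.1, 0.3, 3 or 10 nmol/kg (peptide-dependent), 24 h before oral 50% dextrose at 5 ml/kg unless stated otherwise. Blood glucose read at 0, 15, 30 and 60 min. % inhibition = (1−(AUC cpd−AUC naïve)/(AUC veh−AUC naïve))×100.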

human GLP-1R = target: T1, human GLP-1R (Homo sapiens, UniProt P43220); assay: Human GLP1R agonist activity, intracellular cAMP accumulation; assay type: cell-based; conditions: HEK-293T cells overexpressing human GLP-1R, 1 hr
T1 construct: HEK-293T cells overexpressing full-length human GLP-1R; FLAG (N); host or cells: HEK-293T
T1 sequence (P43220 24-463): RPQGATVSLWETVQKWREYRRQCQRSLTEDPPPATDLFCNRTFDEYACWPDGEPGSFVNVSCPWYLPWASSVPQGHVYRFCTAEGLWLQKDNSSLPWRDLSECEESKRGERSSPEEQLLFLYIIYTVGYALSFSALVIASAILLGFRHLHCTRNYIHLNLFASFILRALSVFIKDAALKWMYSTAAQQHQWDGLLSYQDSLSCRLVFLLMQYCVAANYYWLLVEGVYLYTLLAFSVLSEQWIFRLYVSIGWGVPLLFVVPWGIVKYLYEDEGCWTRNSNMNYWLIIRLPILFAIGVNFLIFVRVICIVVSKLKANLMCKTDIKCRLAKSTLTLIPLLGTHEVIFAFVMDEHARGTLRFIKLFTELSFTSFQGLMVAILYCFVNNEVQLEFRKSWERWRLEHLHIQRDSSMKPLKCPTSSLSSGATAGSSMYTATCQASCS
How it was run: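 Frozen assay-ready cells washed and resuspended at 4×10^5 cells/mL in Krebs Ringer buffer, then incubated with compound 1 hr at room temperature in the dark. cAMP read by HTRF (anti-cAMP antibody, d2-cAMP tracer). Normalised to 1 nm GLP-1 (100%) and DMSO (0%).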

[2] = pH 7.4, aqueous buffer, pH 7.4 Phosphate Buffer - Solubility, 200 mM Phosphate buffer pH 7.4
[3] = pH 7.4, solubility in phosphate buffer at pH 7.4, 200 mM phosphate buffer pH 7.4
[4] = Human GLP1R cAMP EC50, HEK293T (nM)
[5] = read-out: Human GLP1R cAMP EC50, HEK293T

Row | Molecule | solubility [1, 2] [mg/mL] | solubility [1, 3] [mg/mL] | Oral Glucose Tolerance Test Percent decrease in blood glucose AUC (%) over 60 mins (C57BL/6J mice) | EC50 (human GLP-1R; [4]) [nM] | solubility ([1]; pH 7.4) [mg/mL] | solubility ([1]; pH 7.4, aqueous buffer) [mg/mL] | EC50 (human GLP-1R; [5]) [nM]
1 | CC[C@H](C)[C@H](NC(=O)[C@H](Cc1ccccc1)NC(=O)[C@@H](NC(=O)CNC(=O)[C@H](CCC(=O)O)NC(=O)C(C)(C)NC(=O)[C@H](Cc1ccc(O)cc1)NC)[C@@H](C)O)C(=O)N[C@@H](CO)C(=O)N[C@@H](CC(=O)O)C(=O)N[C@@H](Cc1ccc(O)cc1)C(=O)N[C@@H](CO)C(=O)N[C@H](C(=O)NC(C)(C)C(=O)N[C@@H](CCCCNC(=O)CNC(=O)CNC(=O)CNC(=O)CNC(=O)CNC(=O)CCCCCCCCCCCCCCCCC(=O)O)C(=O)N[C@@H](CC(=O)O)C(=O)N[C@@H](CCCNC(=N)N)C(=O)NC(C)(C)C(=O)N[C@@H](C)C(=O)N[C@@H](CCC(N)=O)C(=O)NC(C)(C)C(=O)N[C@@H](CC(=O)O)C(=O)N[C@@H](Cc1ccccc1)C(=O)N[C@H](C(=O)N[C@@H](CC(N)=O)C(=O)N[C@@H](Cc1c[nH]c2ccccc12)C(=O)N[C@@H](CC(C)C)C(=O)N[C@@H](CC(C)C)C(=O)N[C@@H](C)C(=O)N[C@@H](CCC(N)=O)C(=O)N[C@@H](CO)C(=O)N1CCC[C@H]1C(=O)N[C@@H](CO)C(=O)N[C@@H](CO)C(=O)NCC(=O)N[C@@H](C)C(=O)N1CCC[C@H]1C(=O)N1CCC[C@H]1C(=O)N1CCC[C@H]1C(=O)N[C@@H](CO)C(N)=O)C(C)C)[C@@H](C)CC [Compound 48] | ≥ 30 | ≥ 15 | 87% (3 nmol/kg) | 87.1 |  |  | 
2 | CC[C@H](C)[C@H](NC(=O)[C@H](CO)NC(=O)[C@H](Cc1ccc(O)cc1)NC(=O)[C@H](CC(=O)O)NC(=O)[C@H](CO)NC(=O)[C@@H](NC(=O)[C@H](Cc1ccccc1)NC(=O)[C@@H](NC(=O)CNC(=O)[C@H](CCC(=O)O)NC(=O)C(C)(C)NC(=O)[C@H](Cc1ccc(O)cc1)NC)[C@@H](C)O)[C@@H](C)CC)C(=O)N[C@@H](C)C(=O)N[C@@H](CCCCNC(=O)CNC(=O)CNC(=O)CNC(=O)CNC(=O)CNC(=O)CCCCCCCCCCCCCCCCC(=O)O)C(=O)N[C@@H](CC(=O)O)C(=O)N[C@@H](CCCNC(=N)N)C(=O)NC(C)(C)C(=O)N[C@@H](C)C(=O)N[C@@H](CCC(N)=O)C(=O)NC(C)(C)C(=O)N[C@@H](CC(=O)O)C(=O)N[C@@H](Cc1ccccc1)C(=O)N[C@H](C(=O)N[C@@H](CC(N)=O)C(=O)N[C@@H](Cc1c[nH]c2ccccc12)C(=O)N[C@@H](CC(C)C)C(=O)N[C@@H](CC(C)C)C(=O)N[C@@H](C)C(=O)N[C@@H](CCC(N)=O)C(=O)N[C@@H](CO)C(=O)N1CCC[C@H]1C(=O)N[C@@H](CO)C(=O)N[C@@H](CO)C(=O)NCC(=O)N[C@@H](C)C(=O)N1CCC[C@H]1C(=O)N1CCC[C@H]1C(=O)N1CCC[C@H]1C(=O)N[C@@H](CO)C(N)=O)C(C)C [Compound 38] | ≥ 30 | ≥ 15 | 97% (3 nmol/kg) | 45.7 |  |  | 
3 | I: H-[NMeY][Aib]EGTFISDYSIAKDR[Aib]AQ[Aib]DFVNWLLAQSPSSGAPPPS-OH / II: {C18 diacid}-PAPAPGG (amide I:14-II:C) [Compound 105] | ≥ 60 | ≥ 15 | 82% (3 nmol/kg) | 562 |  |  | 
4 | CC[C@H](C)[C@H](NC(=O)[C@H](Cc1ccccc1)NC(=O)[C@@H](NC(=O)CNC(=O)[C@H](CCC(=O)O)NC(=O)C(C)(C)NC(=O)[C@H](Cc1ccc(O)cc1)NC)[C@@H](C)O)C(=O)N[C@@H](CO)C(=O)N[C@@H](CC(=O)O)C(=O)N[C@@H](Cc1ccc(O)cc1)C(=O)N[C@@H](CO)C(=O)N[C@H](C(=O)NC(C)(C)C(=O)N[C@@H](CCCCNC(=O)CNC(=O)CNC(=O)CNC(=O)CNC(=O)CNC(=O)CCCCCCCCCCCCCCCCC(=O)O)C(=O)N[C@@H](CC(=O)O)C(=O)N[C@@H](CCCNC(=N)N)C(=O)NC(C)(C)C(=O)N[C@@H](C)C(=O)N[C@@H](CCC(N)=O)C(=O)NC(C)(C)C(=O)N[C@@H](CC(=O)O)C(=O)N[C@@H](Cc1ccccc1)C(=O)N[C@H](C(=O)N[C@@H](CC(N)=O)C(=O)N[C@@H](Cc1c[nH]c2ccccc12)C(=O)N[C@@H](CC(C)C)C(=O)N[C@@H](CC(C)C)C(=O)N[C@@H](C)C(=O)N[C@@H](CCC(N)=O)C(=O)N[C@@H](CO)C(=O)N1CCC[C@H]1C(=O)NCC(=O)O)C(C)C)[C@@H](C)CC [Compound 83] |  |  | 68% (3 nmol/kg) |  | ≥ 15 | ≥ 30 | 66.1
5 | CC[C@H](C)[C@H](NC(=O)[C@H](CO)NC(=O)[C@H](Cc1ccc(O)cc1)NC(=O)[C@H](CC(=O)O)NC(=O)[C@H](CO)NC(=O)[C@@H](NC(=O)[C@H](Cc1ccccc1)NC(=O)[C@@H](NC(=O)CNC(=O)[C@H](CCC(=O)O)NC(=O)C(C)(C)NC(=O)[C@H](Cc1ccc(O)cc1)NC)[C@@H](C)O)[C@@H](C)CC)C(=O)N[C@@H](C)C(=O)N[C@@H](CC(C)C)C(=O)N[C@@H](CC(=O)O)C(=O)N[C@@H](CCCNC(=N)N)C(=O)N[C@@H](CCCCNC(=O)CNC(=O)CNC(=O)CNC(=O)CNC(=O)CNC(=O)CCCCCCCCCCCCCCCCC(=O)O)C(=O)N[C@@H](C)C(=O)N[C@@H](CCC(N)=O)C(=O)NC(C)(C)C(=O)N[C@@H](CC(=O)O)C(=O)N[C@@H](Cc1ccccc1)C(=O)N[C@H](C(=O)N[C@@H](CCC(=O)O)C(=O)N[C@@H](Cc1c[nH]c2ccccc12)C(=O)N[C@@H](CC(C)C)C(=O)N[C@@H](CC(C)C)C(=O)N[C@@H](C)C(=O)N[C@@H](CCC(N)=O)C(=O)N[C@@H](CCCNC(=N)N)C(=O)NCC(=O)O)C(C)C [Compound 115] |  |  | 40% (3 nmol/kg) |  | ≥ 15 | ≥ 30 | 40.7
6 | CC[C@H](C)[C@H](NC(=O)[C@H](CO)NC(=O)[C@H](Cc1ccc(O)cc1)NC(=O)[C@H](CC(=O)O)NC(=O)[C@H](CO)NC(=O)[C@@H](NC(=O)[C@H](Cc1ccccc1)NC(=O)[C@@H](NC(=O)CNC(=O)[C@H](CCC(=O)O)NC(=O)C(C)(C)NC(=O)[C@H](Cc1ccc(O)cc1)NC)[C@@H](C)O)[C@@H](C)CC)C(=O)N[C@@H](C)C(=O)N[C@@H](CCCCNC(=O)CNC(=O)CNC(=O)CNC(=O)CNC(=O)CNC(=O)CCCCCCCCCCCCCCCCC(=O)O)C(=O)N[C@@H](CC(=O)O)C(=O)N[C@@H](CCCNC(=N)N)C(=O)NC(C)(C)C(=O)N[C@@H](C)C(=O)N[C@@H](CCC(N)=O)C(=O)NC(C)(C)C(=O)N[C@@H](CC(=O)O)C(=O)N[C@@H](Cc1ccccc1)C(=O)N[C@H](C(=O)N[C@@H](CC(N)=O)C(=O)N[C@@H](Cc1c[nH]c2ccccc12)C(=O)N[C@@H](CC(C)C)C(=O)N[C@@H](CC(C)C)C(=O)N[C@@H](C)C(=O)N[C@@H](CCC(N)=O)C(=O)N[C@@H](CCC(N)=O)C(=O)NCC(=O)O)C(C)C [Compound 82] |  |  | 72% (3 nmol/kg) |  | ≥ 15 | ≥ 30 | 17.4
